The test system of one data set is M. kanasii (MK). Nature of the data set: Broth dilution MIC against M. kanasii isolate. The class given is cell-based. As to conditions: 168 h. How it is done:
(§1) Testing of new drugs for activity against Mycobacterial infections is carried out in vitro and in vivo in well defined laboratory procedures which have been widely published. The method used to test for biological activity against growing Mycobacterium avium complex (MAC), Mycobacterium tuberculosis (MTB) and Mycobacterium kanasii (MK) are described by A. H. Gonzalez et al. in J. Antimicrob. Chemother. 1989, 24:19-22; S. Majumder and M. H. Cynamon, Amer. Soc. for Microbiology Mtgs, U-4, May 1992, abstract.
(§2) Activity in vitro was determined against clinical isolates of MAC, MTB and MK using a broth dilution method. Mycobacteria were grown for several days in 7H10 broth, ph 6.6, with 10% OADC enrichment and 0.05% Tween 80. Serial two-fold dilutions of antimicrobial drugs were prepared in 7H10 broth at 128 μg/ml and less. Cultures containing a final concentration of approximately 2.5×10^4 to 6.3×10^5 CFU/ml were incubated on a rotary shaker at 37° C. for 7 days and read where the minimum inhibitory concentration was defined as the MIC at the lowest concentration without visual turbidity. JPC7766 in these studies was compared to known active antimicrobial drugs Proguanil (PG), Cycloguanil (CG), Sulfamethazine (SM) and/or Dapsone (DDS).
In general terms: Broth dilution looks for growth in wells or tubes with falling amounts of substance.

The next data set relates to M. avium (MAC). Nature of the data set: Broth dilution MIC against Mycobacterium avium complex isolates. It is filed as cell-based. As to conditions: 168 h. The procedure:
as §1, §2

The subject of a further data set is M. tuberculosis (MTB). Nature of the data set: Broth dilution MIC against M. tuberculosis isolates. The class given is cell-based. Particulars: Mycobacterium tuberculosis, 168 h. How it is done: as §1, §2
The next data set deals with P. berghei. Nature of the data set: P. berghei infection in mice, injected vs. oral doses, 50% cure (Table 2). The source says:
Comparative tests in vivo in mice against Plasmodium have been carried out. […] Premature deaths of animals (earlier than five days post infection) are considered as indications of toxicity.
These tests systems are described in detail in publications by L. Rane and D. S. Rane, 9th Int. […] Trop. Med. Malaria. (1973) 1:281 (#406) and (2) T. S. Osdedne, P. B. Russell and L. Rane, J. Med. Chem. 1967. 10:431.
In this methodology, groups of 5 or 10 mice are infected with a standard inoculum of a blood-induced P. berghei infection and are treated with a single subcutaneous dose ([…]) of test drug suspended in peanut oil or a single oral dose of test drug suspended in hexamethyl cellulose and Tween. The animals are then observed for a maximum of thirty days. […] Animals surviving for thirty days are considered cured.

Data set [1] deals with Pneumocystis carinii. Nature of the data set: Prevention of Pneumocystis carinii infection in immunosuppressed rats. The class given is in vivo. As to conditions: 125 mg/kg daily.
Description: In this method rats are immunosuppressed with high doses of glucocorticosteroids while being protected from bacterial infection by concurrent administration of the antibiotic tetracycline. In a standard evaluation animals are immunosuppressed with steroids and various doses of test compounds are administered for six weeks during which time unprotected animals will develop pneumocystis pneumonitis. The percentage of animals free of the disease represents the effectiveness of a selected dose of test drug.
A customary method to produce pneumocystis in the animals is to administer 2 mg of dexamethasone and 50 mg tetracycline hydrochloride per liter of drinking water. The test compounds are integrated in the food.
The test system of data set [2] is Pneumocystis carinii. Particulars: 125 mg/kg; cited from earlier work.

The MIC is the lowest concentration that inhibits growth of the organism. Low readings indicate a more susceptible organism, high ones a less susceptible organism.

≈ marks a conversion by molar mass, not a printed value. Some results are limits rather than exact numbers.

For `Cc1cc(C)nc(NS(=O)(=O)c2ccc(N)cc2)n1` [Sulfamethazine], the MIC was 64 µg/mL (≈ 230 µM) in the data set with M. kanasii (MK); > 128 µg/mL with M. avium (MAC) (isolate MAC 101); 16 µg/mL (≈ 57.5 µM) in the data set with M. avium (MAC) (isolate MAC FAR); 32 µg/mL (≈ 115 µM) against M. avium (MAC) (isolate MAC LPR); 64 µg/mL (≈ 230 µM) against M. tuberculosis (MTB) (isolate MTB 311); 64 µg/mL (≈ 230 µM) with M. tuberculosis (MTB) (H37RV, isolate MTB H37 Rv).

`[H]/N=C(\N/C(=N/[H])Nc1ccc(Cl)cc1)NC(C)C` [Proguanil]: the Toxicity entry with P. berghei (oral (PO), @ >160 mg/kg) is given as “Toxic”. Also, the “50% cures; oral PO ED-50” value with P. berghei (single oral dose) was “No Cures”. In the data set on P. berghei (subcutaneous, in peanut oil), the “50% cure; injected SQ ED-50” value is “NO CURES”. Besides, the MIC with M. avium (MAC) (isolate MAC 101) was > 128 µg/mL; in the data set on M. avium (MAC) (isolate MAC FAR) it was 64 µg/mL (≈ 252 µM); against M. avium (MAC) (isolate MAC LPR), 128 µg/mL (≈ 504 µM).

Compound `Nc1ccc(S(=O)(=O)c2ccc(N)cc2)cc1` [Dapsone] yielded an Efficacy in the data set with Pneumocystis carinii [1] of 100%. In addition, the “# infected” value with Pneumocystis carinii [1] (infected/treated) is recorded as 0/10. Further, the protection from pneumocystis result in the data set on Pneumocystis carinii [2] is given as “fully effective”. Also, the MIC worked out at 16 µg/mL (≈ 64.4 µM) against M. avium (MAC) (isolate MAC 101), 64 µg/mL (≈ 258 µM) with M. avium (MAC) (isolate MAC FAR) and 32 µg/mL (≈ 129 µM) with M. avium (MAC) (isolate MAC LPR).

For `CC1(C)N=C(N)N=C(N)N1c1ccc(Cl)cc1` [Cycloguanil], the MIC against M. kanasii (MK) is 64 µg/mL (≈ 254 µM); in the data set on M. avium (MAC) (isolate MAC LPR) it was > 128 µg/mL; in the data set on M. tuberculosis (MTB) (isolate MTB 311), 64 µg/mL (≈ 254 µM); against M. tuberculosis (MTB) (H37RV, isolate MTB H37 Rv), 64 µg/mL (≈ 254 µM).

With `CC1(C)N=C(N)N=C(N)N1OCCCOc1cc(Cl)c(Cl)cc1Cl` [WR99210], the ED50 in the data set with P. berghei (Plasmodium berghei, in Mus musculus, sc, read-out: 50% cure, injected SQ ED-50) was 245 mg/kg. For the same compound, in the data set on P. berghei (oral (PO), @ 640 mg/kg), the Cures entry is on record as “No Cures”.

The record behind these values is patent US5322858A, “N,N'-substituted imidodicarbonimidic diamides derived from hydroxylamines” (Jacobus Pharmaceutical Co. Inc., priority 1992, dated 1994).
